Each structure is given as a SMILES string.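 Five compound concentrations were applied to cells in 96-well plates for 48 hours; endpoints were derived by simple linear interpolation of the resulting dose-response curve. The concentration for 50% growth inhibition is given as GI50. TGI marks complete inhibition of growth.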

For 2 compounds, GI50 and TGI results are on record in PubChem BioAssay (NCI).

Test in all cases: NCI tumour cell line growth inhibition, 48 h
Experiment [1] deals with BT-549 breast.
For experiment [2], the system named is SK-MEL-28 melanoma.
Experiment [3] has as its system HOP-62 NSCLC.
The test system of experiment [4] is HL-60(TB) leukemia.
The subject of experiment [5] is NCI-H460 lung.
The test system of experiment [6] is NCI/ADR-RES ovarian.
Experiment [7] concerns K-562 leukemia.
For experiment [8], the system named is HCT-15 colon.
In experiment [9] the test system is HCC-2998 colon.
The test system of experiment [10] is SK-MEL-5 melanoma.

Take `CCn1c2ccccc2c2cc(C(=O)c3ccc(C)c4ccccc34)ccc21`: the GI50 in experiment [1] was 574 nM; in experiment [2], 477 nM; in [3], 476 nM; in experiment [4], 307 nM; in experiment [5], 356 nM; in [6] it was 312 nM. Besides, the GI50 in experiment [7] is 338 nM; in experiment [8] it was 329 nM; in experiment [9], 549 nM; in [10], 319 nM. The TGI is 5340 nM in [1]; greater than 100000 nM in experiment [2]; greater than 100000 nM in experiment [3]; 2000 nM in experiment [4]; greater than 100000 nM in experiment [5]; greater than 100000 nM in experiment [6]. The TGI is greater than 100000 nM in experiment [7], greater than 100000 nM in experiment [8], 3800 nM in [9] and 1410 nM in [10].
As to `C=C(C)[C@@H]1CC[C@]2(C(=O)NS(=O)(=O)c3ccccc3)CC[C@]3(C)[C@H](CC[C@@H]4[C@@]5(C)CC[C@H](OC(=O)NS(=O)(=O)c6ccccc6)C(C)(C)[C@@H]5CC[C@]43C)[C@@H]12`, the GI50 is 1790 nM in experiment [1]; 2050 nM in experiment [2]; 2330 nM in [3]; 2240 nM in experiment [4]; 1490 nM in experiment [5]; 3870 nM in experiment [6]. The GI50 is 1410 nM in experiment [7], 1620 nM in [8], 1420 nM in [9] and 1480 nM in experiment [10]. The TGI in experiment [1] stood at 6310 nM; in [2] it was 5320 nM; in [3] it was 6830 nM; in experiment [4], 5080 nM; in [5], 3260 nM; in experiment [6] it was 24000 nM. Besides, the TGI in experiment [7] came out at 17300 nM; in experiment [8] it was 4650 nM; in experiment [9] it was 2850 nM; in [10], 2980 nM.
